The values below come from patent publication US20220306695A1, “COMPSTATIN ANALOGUES AND THEIR MEDICAL USES” (priority 2019, published 2022).

Starred links: 1 amine or outer side, 2 acyl side, 3 side chain; linkers in the order of their positions; H or OH if unused. Positions of bridges follow the written chain, without caps; N, C: chain ends. Non-standard residues stand in square brackets, D forms with d. Residues, ends and D or L forms follow the SMILES beside them. Groups on a side chain read outwards from the residue. *: point of attachment. Trp(1-Me) = Cn1cc(C[C@H](N)C(=O)O)c2ccccc21; C18 diacid = O=C(O)CCCCCCCCCCCCCCCCC(=O)*; γGlu = O=C(O)[C@H](CCC(=O)[*:2])N[*:1]; 2Nal = N[C@@H](Cc1ccc2ccccc2c1)C(=O)O; Sar = CNCC(=O)O

Data set [1] can be described thus: Solubility test at 10 mg/mL (visual inspection and light scattering). It is filed as physicochemical. Particulars: for Solubility, Condition 1 Acetate pH 4: 10 mg/mL compound in 100 mM acetate pH 4; for Solubility, Condition 2 Acetate pH 5: 10 mg/mL compound in 100 mM acetate pH 5; for Solubility, Condition 3 Phosphate pH 6: 10 mg/mL compound in 100 mM phosphate pH 6; for Solubility, Condition 4 Phosphate pH 7: 10 mg/mL compound in 100 mM phosphate pH 7; for Solubility, Condition 5 Phosphate pH 7.5: 10 mg/mL compound in 100 mM phosphate pH 7.5.

The test system of data set [2] is classical complement pathway. In words: In vitro haemolysis assay (inhibition of classical complement pathway). It is filed as cell-based, human. Particulars: Table 3; human serum, sensitized sheep red blood cells; read-out: IC50[nM], in vitro analysis of inhibition of hemolysis. A digest of the protocol:
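Serially diluted compound (9 points) was preincubated 15 min at room temperature with diluted human serum, titrated per batch to give 70-90% maximal haemolysis, in Tris/casein buffer pH 7.4 with Mg2+/Ca2+. Antibody-sensitized sheep erythrocytes were then added for 30 min at 37° C, and the reaction was stopped with EDTA. Haemolysis was read at A405, with IC50 from 4PL fit.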

Usually IC50 stands for the midpoint of a concentration-inhibition curve. On to `CC[C@H](C)[C@@H]1NC(=O)[C@@H](NC(=O)[C@H](Cc2ccccc2)NC(=O)[C@H](CCC(=O)O)NC(=O)[C@H](CO)NC(C)=O)CSSC[C@@H](C(=O)N[C@H](C(=O)N[C@@H](CCC(=O)O)C(=O)N[C@@H](C)C(N)=O)[C@@H](C)O)NC(=O)[C@H](CCCNC(=N)N)NC(=O)[C@H](Cc2c[nH]cn2)NC(=O)[C@H](CCC(=O)O)NC(=O)CN(C)C(=O)[C@H](Cc2c[nH]c3ccccc23)NC(=O)[C@H](CC(=O)O)NC(=O)[C@H](CCC(N)=O)NC(=O)[C@H](Cc2cn(C)c3ccccc23)NC1=O` [Compound 77, Ac-SEFC(1)I[1-Me-Trp]QDW[Sar]EHRC(1)TEA-NH2] (Ac-SEFCI[Trp(1-Me)]QDW[Sar]EHRCTEA-NH2; disulfide 4-14), for which, in data set [1], the “Solubility, Condition 1 Acetate pH 4” value was “− (denotes lack of solubility at the given condition, as UV absorbance at 340 nm exceeds 0.1 AU and/or it is visibly turbid or contains particles.)”; the “Solubility, Condition 2 Acetate pH 5” value was “− (denotes lack of solubility at the given condition, as UV absorbance at 340 nm exceeds 0.1 AU and/or it is visibly turbid or contains particles.)”; the “Solubility, Condition 3 Phosphate pH 6” value is “+ (denotes solubility at the given condition, as determined by UV absorbance being less than 0.1 AU at 340 nm and the sample being clear when manually inspected.)”; the “Solubility, Condition 4 Phosphate pH 7” value was “+ (denotes solubility at the given condition, as determined by UV absorbance being less than 0.1 AU at 340 nm and the sample being clear when manually inspected.)”. The “Solubility, Condition 5 Phosphate pH 7.5” value in data set [1] is “+ (denotes solubility at the given condition, as determined by UV absorbance being less than 0.1 AU at 340 nm and the sample being clear when manually inspected.)”. For the same molecule, the IC50 in data set [2] was under 100 nM.

On to `CC[C@H](C)[C@@H]1NC(=O)[C@@H](NC(=O)[C@H](Cc2ccc(O)cc2)NC(C)=O)CSSC[C@@H](C(=O)N[C@H](C(=O)NCC(=O)N[C@@H](C)C(=O)N[C@@H](CCC(=O)O)C(=O)N[C@@H](CO)C(N)=O)[C@@H](C)O)NC(=O)[C@H](CCCNC(=N)N)NC(=O)[C@H](Cc2c[nH]cn2)NC(=O)[C@H](CCC(=O)O)NC(=O)CNC(=O)[C@H](Cc2c[nH]c3ccccc23)NC(=O)[C@H](CC(=O)O)NC(=O)[C@H](CCC(N)=O)NC(=O)[C@H](Cc2ccc3ccccc3c2)NC1=O` [Compound 65] (Ac-YCI[2Nal]QDWGEHRCTGAES-NH2; disulfide 2-12), for which, in data set [1], the “Solubility, Condition 1 Acetate pH 4” value is listed as “− (denotes lack of solubility at the given condition, as UV absorbance at 340 nm exceeds 0.1 AU and/or it is visibly turbid or contains particles.)”; the “Solubility, Condition 2 Acetate pH 5” value is reported as “− (denotes lack of solubility at the given condition, as UV absorbance at 340 nm exceeds 0.1 AU and/or it is visibly turbid or contains particles.)”; the “Solubility, Condition 3 Phosphate pH 6” value was “+ (denotes solubility at the given condition, as determined by UV absorbance being less than 0.1 AU at 340 nm and the sample being clear when manually inspected.)”; the “Solubility, Condition 4 Phosphate pH 7” value is “+ (denotes solubility at the given condition, as determined by UV absorbance being less than 0.1 AU at 340 nm and the sample being clear when manually inspected.)”. For the same molecule, the “Solubility, Condition 5 Phosphate pH 7.5” value in data set [1] is “+ (denotes solubility at the given condition, as determined by UV absorbance being less than 0.1 AU at 340 nm and the sample being clear when manually inspected.)”. In data set [2], the IC50 is under 100 nM.

Consider `CC[C@H](C)[C@@H]1NC(=O)[C@@H](NC(=O)[C@H](Cc2ccc(O)cc2)NC(=O)[C@H](C)NC(=O)[C@H](CO)NC(=O)CNC(=O)[C@H](CCC(=O)O)NC(C)=O)CSSC[C@@H](C(=O)N(C)CC(=O)N[C@@H](CCC(=O)O)C(=O)NCC(=O)N[C@@H](CCC(=O)O)C(=O)N[C@@H](CCCCNC(=O)CC[C@H](NC(=O)CNC(=O)CC[C@H](NC(=O)CCCCCCCCCCCCCCCCC(=O)O)C(=O)O)C(=O)O)C(N)=O)NC(=O)[C@H](CCCNC(=N)N)NC(=O)[C@H](Cc2c[nH]cn2)NC(=O)[C@H](CCC(=O)O)NC(=O)CNC(=O)[C@H](Cc2c[nH]c3ccccc23)NC(=O)[C@H](CC(=O)O)NC(=O)[C@H](CCC(N)=O)NC(=O)[C@H](Cc2cn(C)c3ccccc23)NC1=O` [Compound 109] (Ac-EGSAYCI[Trp(1-Me)]QDWGEHRC[Sar]EGEK([γGlu-Gly-γGlu-C18 diacid])-NH2; disulfide 6-16), for which, in data set [1], the “Solubility, Condition 1 Acetate pH 4” value is reported as “− (denotes lack of solubility at the given condition, as UV absorbance at 340 nm exceeds 0.1 AU and/or it is visibly turbid or contains particles.)”; the “Solubility, Condition 2 Acetate pH 5” value was “+ (denotes solubility at the given condition, as determined by UV absorbance being less than 0.1 AU at 340 nm and the sample being clear when manually inspected.)”; the “Solubility, Condition 3 Phosphate pH 6” value is “+ (denotes solubility at the given condition, as determined by UV absorbance being less than 0.1 AU at 340 nm and the sample being clear when manually inspected.)”; the “Solubility, Condition 4 Phosphate pH 7” value was “+ (denotes solubility at the given condition, as determined by UV absorbance being less than 0.1 AU at 340 nm and the sample being clear when manually inspected.)”. In addition, in data set [1], the “Solubility, Condition 5 Phosphate pH 7.5” value is “+ (denotes solubility at the given condition, as determined by UV absorbance being less than 0.1 AU at 340 nm and the sample being clear when manually inspected.)”. For the same molecule, the concentration for half-maximal inhibition (IC50) in data set [2] was under 250 nM.

For the molecule `CC[C@H](C)[C@H](NC(C)=O)C(=O)N[C@H]1CSSC[C@@H](C(=O)N[C@H](C(=O)NCC(=O)N[C@@H](C)C(=O)N[C@@H](CCC(=O)O)C(=O)N[C@@H](CO)C(N)=O)[C@@H](C)O)NC(=O)[C@H](CCCNC(=N)N)NC(=O)[C@H](Cc2c[nH]cn2)NC(=O)[C@H](CCC(=O)O)NC(=O)CNC(=O)[C@H](Cc2c[nH]c3ccccc23)NC(=O)[C@H](CC(=O)O)NC(=O)[C@H](CCC(N)=O)NC(=O)[C@H](Cc2ccc3ccccc3c2)NC(=O)[C@H]([C@@H](C)CC)NC1=O` [Compound 52] (Ac-ICI[2Nal]QDWGEHRCTGAES-NH2; disulfide 2-12), in data set [1], the “Solubility, Condition 1 Acetate pH 4” value is “− (denotes lack of solubility at the given condition, as UV absorbance at 340 nm exceeds 0.1 AU and/or it is visibly turbid or contains particles.)”; the “Solubility, Condition 2 Acetate pH 5” value is “− (denotes lack of solubility at the given condition, as UV absorbance at 340 nm exceeds 0.1 AU and/or it is visibly turbid or contains particles.)”; the “Solubility, Condition 3 Phosphate pH 6” value is “+ (denotes solubility at the given condition, as determined by UV absorbance being less than 0.1 AU at 340 nm and the sample being clear when manually inspected.)”; the “Solubility, Condition 4 Phosphate pH 7” value was “+ (denotes solubility at the given condition, as determined by UV absorbance being less than 0.1 AU at 340 nm and the sample being clear when manually inspected.)”. In addition, the “Solubility, Condition 5 Phosphate pH 7.5” value in data set [1] was “+ (denotes solubility at the given condition, as determined by UV absorbance being less than 0.1 AU at 340 nm and the sample being clear when manually inspected.)”. Further, in data set [2], the concentration for half-maximal inhibition (IC50) is under 100 nM.

For the molecule `CC[C@H](C)[C@@H]1NC(=O)[C@@H](NC(=O)[C@H](Cc2ccc(O)cc2)NC(C)=O)CSSC[C@@H](C(=O)N[C@H](C(=O)NCC(=O)N[C@@H](C)C(=O)N[C@@H](CCC(=O)O)C(=O)N[C@@H](CO)C(N)=O)[C@@H](C)O)NC(=O)[C@H](CCCNC(=N)N)NC(=O)[C@H](Cc2c[nH]cn2)NC(=O)[C@H](CCC(=O)O)NC(=O)CNC(=O)[C@H](Cc2c[nH]c3ccccc23)NC(=O)[C@H](CC(=O)O)NC(=O)[C@H](CCC(N)=O)NC(=O)[C@H](Cc2cn(C)c3ccccc23)NC1=O` [Compound 62] (Ac-YCI[Trp(1-Me)]QDWGEHRCTGAES-NH2; disulfide 2-12), in data set [1], the “Solubility, Condition 1 Acetate pH 4” value is on record as “− (denotes lack of solubility at the given condition, as UV absorbance at 340 nm exceeds 0.1 AU and/or it is visibly turbid or contains particles.)”; the “Solubility, Condition 2 Acetate pH 5” value is reported as “− (denotes lack of solubility at the given condition, as UV absorbance at 340 nm exceeds 0.1 AU and/or it is visibly turbid or contains particles.)”; the “Solubility, Condition 3 Phosphate pH 6” value is “+ (denotes solubility at the given condition, as determined by UV absorbance being less than 0.1 AU at 340 nm and the sample being clear when manually inspected.)”; the “Solubility, Condition 4 Phosphate pH 7” value is “+ (denotes solubility at the given condition, as determined by UV absorbance being less than 0.1 AU at 340 nm and the sample being clear when manually inspected.)”. Further, the “Solubility, Condition 5 Phosphate pH 7.5” value in data set [1] was “+ (denotes solubility at the given condition, as determined by UV absorbance being less than 0.1 AU at 340 nm and the sample being clear when manually inspected.)”. Besides, the half-maximal inhibitory concentration (IC50) in data set [2] was under 100 nM.

For the molecule `CC[C@H](C)[C@H](NC(C)=O)C(=O)N[C@H]1CSSC[C@@H](C(=O)N[C@@H](CCC(=O)O)C(N)=O)NC(=O)[C@H](CCCNC(=N)N)NC(=O)[C@H](Cc2c[nH]cn2)NC(=O)[C@H](CCC(=O)O)NC(=O)CNC(=O)[C@H](Cc2c[nH]c3ccccc23)NC(=O)[C@H](CC(=O)O)NC(=O)[C@H](CCC(N)=O)NC(=O)[C@H](Cc2c[nH]c3ccccc23)NC(=O)[C@H]([C@@H](C)CC)NC1=O` [Compound 22] (Ac-ICIWQDWGEHRCE-NH2; disulfide 2-12), in data set [1], the “Solubility, Condition 1 Acetate pH 4” value was “+ (denotes solubility at the given condition, as determined by UV absorbance being less than 0.1 AU at 340 nm and the sample being clear when manually inspected.)”; the “Solubility, Condition 2 Acetate pH 5” value was “− (denotes lack of solubility at the given condition, as UV absorbance at 340 nm exceeds 0.1 AU and/or it is visibly turbid or contains particles.)”; the “Solubility, Condition 3 Phosphate pH 6” value is reported as “− (denotes lack of solubility at the given condition, as UV absorbance at 340 nm exceeds 0.1 AU and/or it is visibly turbid or contains particles.)”; the “Solubility, Condition 4 Phosphate pH 7” value is “+ (denotes solubility at the given condition, as determined by UV absorbance being less than 0.1 AU at 340 nm and the sample being clear when manually inspected.)”. Also, in data set [1], the “Solubility, Condition 5 Phosphate pH 7.5” value was “+ (denotes solubility at the given condition, as determined by UV absorbance being less than 0.1 AU at 340 nm and the sample being clear when manually inspected.)”. The half-inhibitory concentration (IC50) in data set [2] was under 100 nM.
